A short description of this test: Inhibition of C-terminal FLAG-His-tagged full length human CTPS1 measured after 60 mins by ADP-Glo assay.

For `CC(C)(C(=O)Nc1ccc(-c2cnccn2)cc1)c1ccnc(NS(=O)(=O)C2CC2)n1`, the IC50 is > 1000 nM.
The value for `CCOc1cncc(-c2ccc(NC(=O)C(C)(C)c3ccnc(NS(=O)(=O)C4CC4)n3)nc2)c1` was > 100 nM; that for `CCC(C(=O)Nc1ccc(-c2cncc(Cl)n2)cc1)c1ccnc(NS(=O)(=O)C2CC2)n1` (stereo not drawn) was > 100 nM.
The value for `CC(C)Oc1cncc(-c2ccc(NC(=O)C(C)(C)c3ccnc(NS(=O)(=O)C4CC4)n3)nc2)n1` was ≤ 100 nM; that for `CC(C)(C(=O)Nc1ccc(-c2cncc(C(F)(F)F)n2)cn1)c1ccnc(NS(=O)(=O)C2CC2)n1` was ≤ 100 nM.
The value for `CCOc1cncc(-c2ccc(NC(=O)C(C)(C)c3nc(NS(=O)(=O)C4CC4)ncc3F)cc2)n1` was > 100 nM.
`CCOc1cncc(-c2ccc(NC(=O)C(C)(C)c3ccnc(NS(=O)(=O)C4(C)CC4)n3)cc2)n1`: the IC50 was > 100 nM.
The result for `CC(C(=O)Nc1ccc(-c2cccnc2)cc1)c1ccnc(NS(=O)(=O)C2CC2)n1` (stereo not drawn) reads > 100 nM.
The value for `CC(C)Oc1cncc(-c2ccc(NC(=O)C(C)(C)c3ccnc(NS(C)(=O)=O)n3)c(F)c2)n1` was > 100 nM; that for `CCC(C(=O)Nc1ccc(-c2cncc(C#N)c2)cc1)c1ccnc(NS(=O)(=O)C2CC2)n1` (stereo not drawn) was > 100 nM; that for `CC(C)Oc1cncc(-c2ccc(NC(=O)C(C)(C)c3ccnc(NS(=O)(=O)C4CCC4)n3)c(F)c2)n1` was > 100 nM.
The value for `CCC(C(=O)Nc1ccc(-c2cncc(OCC(F)(F)F)n2)cc1F)c1ccnc(NS(=O)(=O)C2CC2)n1` (stereo not drawn) was ≤ 100 nM; that for `COc1cncc(-c2ccc(NC(=O)C(C)(C)c3ccnc(NS(=O)(=O)C4CCC4)n3)cc2)n1` was > 100 nM; that for `CCC(C(=O)Nc1ccc(-c2cncc(OC(C)C)n2)cn1)c1ccnc(NS(=O)(=O)C2CC2)n1` (stereo not drawn) was ≤ 100 nM.
For `CCC(C(=O)Nc1ccc(-c2cncc(OC)n2)cc1)c1ccnc(NS(=O)(=O)C2CC2)n1` (stereo not drawn), the IC50 is ≤ 100 nM.
The value for `CCOc1cncc(-c2cnc(NC(=O)C(C)(C)c3ccnc(NS(C)(=O)=O)n3)c(F)c2)n1` was > 100 nM; that for `CC(C)(C(=O)Nc1ccc(-c2cncc(C(F)(F)F)n2)cc1)c1ccnc(NS(=O)(=O)C2CC2)n1` was ≤ 100 nM; that for `Cc1cncc(-c2ccc(NC(=O)C(C)(C)c3ccnc(NS(=O)(=O)C4CC4)n3)cc2)c1` was > 100 nM.
The value for `CCOc1cncc(-c2cnc(NC(=O)C(C)(C)c3ccnc(NS(=O)(=O)C4CC4)n3)c(F)c2)n1` was ≤ 100 nM.
The result for `CCOc1cncc(-c2ccc(NC(=O)C(C)(C)c3ccnc(NS(=O)(=O)C4CC4)n3)cc2)c1` reads > 100 nM; that for `CCOc1cncc(-c2ccc(NC(=O)C(C)(C)c3ccnc(NS(C)(=O)=O)n3)cc2)n1`, ≤ 100 nM; that for `CC(C)(C(=O)Nc1ccc(-c2cnccn2)cc1F)c1ccnc(NS(=O)(=O)C2CC2)n1`, > 1000 nM.
Take `COc1cncc(-c2ccc(NC(=O)C(C)(C)c3ccnc(NS(=O)(=O)C4CC4)n3)cc2)n1`: the IC50 is ≤ 100 nM.
The result for `CCOc1cncc(-c2cc(C)c(NC(=O)C(C)(C)c3ccnc(NS(=O)(=O)C4CC4)n3)cc2F)n1` reads > 100 nM; that for `CCC(C(=O)Nc1ccc(-c2cncc(OC(C)C)c2)cc1F)c1ccnc(NS(=O)(=O)C2CC2)n1` (stereo not drawn), > 100 nM.
For `CC(C)Oc1cncc(-c2ccc(NC(=O)C(C)(C)c3ccnc(NS(=O)(=O)C4CC4)n3)c(F)c2)c1`, the IC50 is > 100 nM.
Turning to `CCOc1cncc(-c2ccc(NC(=O)C(C)(C)c3ccnc(NS(C)(=O)=O)n3)nc2)n1`, the IC50 was > 100 nM.
The value for `CC(C)Oc1cncc(-c2ccc(NC(=O)C(C)(C)c3ccnc(NS(=O)(=O)C4CC4)n3)c(F)c2)n1` was ≤ 100 nM.
In the case of `CCOc1cncc(-c2ccc(NC(=O)C(C)(C)c3ccnc(NS(=O)(=O)C4CC4)n3)c(F)c2)n1`, the IC50 is ≤ 100 nM.
The result for `CCC(C(=O)Nc1ccc(-c2cccnc2)cn1)c1ccnc(NS(=O)(=O)C2CC2)n1` (stereo not drawn) reads > 1000 nM; that for `CCOc1cncc(-c2ccc(NC(=O)C(C)(C)c3ccnc(NS(=O)(=O)C4CCC4)n3)nc2)n1`, > 100 nM; that for `CCC(C(=O)Nc1ccc(-c2cncc(C(F)(F)F)n2)cc1)c1ccnc(NS(=O)(=O)C2CC2)n1` (stereo not drawn), > 100 nM.
The result for `CCOc1cncc(-c2ccc(NC(=O)C(C)(C)c3ccnc(NS(=O)(=O)C4CC4)n3)c(C)c2C)n1` reads > 100 nM; that for `CC(C)(C(=O)Nc1ccc(-c2cccnc2)cn1)c1ccnc(NS(=O)(=O)C2CC2)n1`, > 1000 nM.
The result for `CCC(C(=O)Nc1ccc(-c2cncc(C(F)(F)F)n2)cc1F)c1ccnc(NS(=O)(=O)C2CC2)n1` (stereo not drawn) reads ≤ 100 nM; that for `CC(C)(C(=O)Nc1ccc(-c2cncc(C(F)(F)F)n2)cc1F)c1ccnc(NS(=O)(=O)C2CC2)n1`, ≤ 100 nM.
Take `CCC(C(=O)Nc1ccc(-c2cncc(C(F)(F)F)c2)cn1)c1ccnc(NS(=O)(=O)C2CC2)n1` (stereo not drawn): the IC50 was > 100 nM.
The result for `CC(C)(C(=O)Nc1ccc(-c2cncc(C(F)(F)F)c2)cc1)c1ccnc(NS(=O)(=O)C2CC2)n1` reads > 100 nM; that for `CCOc1cncc(-c2ccc(NC(=O)C(C)(C)c3ccnc(NS(=O)(=O)CC)n3)c(F)c2)n1`, > 100 nM.
`CCOc1cncc(-c2ccc(NC(=O)C(C)(C)c3ccnc(NS(=O)(=O)CC)n3)cc2)n1`: the IC50 is > 100 nM.
The value for `CC(C)Oc1cncc(-c2ccc(NC(=O)Cc3ccnc(NS(=O)(=O)C4CC4)n3)cc2)n1` was ≤ 100 nM.
The value for `CCS(=O)(=O)Nc1nccc(C(C)(C)C(=O)Nc2ccc(-c3cncc(C(F)(F)F)n3)cc2)n1` was > 100 nM.
The result for `CCC(C(=O)Nc1ccc(-c2cnccn2)cc1)c1ccnc(NS(=O)(=O)C2CC2)n1` (stereo not drawn) reads > 100 nM.
As to `Cc1cc(-c2cncc(C(F)(F)F)n2)ccc1NC(=O)C(C)(C)c1ccnc(NS(=O)(=O)C2CC2)n1`, the IC50 was > 100 nM.
The result for `CCOc1cncc(-c2ccc(NC(=O)C(C)(C)c3ccnc(NS(=O)(=O)C4CC4)n3)c(OC)c2)n1` reads ≤ 100 nM; that for `CCOc1cncc(-c2cc(F)c(NC(=O)C(C)(C)c3ccnc(NS(=O)(=O)C4CC4)n3)c(F)c2)n1`, ≤ 100 nM.
The value for `CCC(C(=O)Nc1ccc(-c2cncc(Cl)c2)cc1F)c1ccnc(NS(=O)(=O)C2CC2)n1` (stereo not drawn) was > 100 nM.
The value for `CCOc1cncc(-c2ccc(NC(=O)C(C)(C)c3ccnc(NS(=O)(=O)C4CC4)n3)c(Cl)c2)n1` was ≤ 100 nM.
As to `CCOc1cncc(-c2cc(C)c(NC(=O)C(C)(C)c3ccnc(NS(=O)(=O)C4CC4)n3)cc2C)n1`, the IC50 was > 100 nM.
The result for `CC(C)(C(=O)Nc1ccc(-c2cncc(C#N)c2)cc1)c1ccnc(NS(=O)(=O)C2CC2)n1` reads > 100 nM.
The value for `CCOc1cncc(-c2ccc(NC(=O)C(CC)c3ccnc(NS(=O)(=O)C4CC4)n3)nc2)n1` (stereo not drawn) was ≤ 100 nM; that for `CC(C)(C(=O)Nc1ccc(-c2cncc(Cl)c2)cc1)c1ccnc(NS(=O)(=O)C2CC2)n1` was > 100 nM; that for `CCC(C(=O)Nc1ccc(-c2cncc(Cl)c2)cc1)c1ccnc(NS(=O)(=O)C2CC2)n1` (stereo not drawn) was > 100 nM.
The value for `CC(C)Oc1cncc(-c2ccc(NC(=O)C(C)(C)c3ccnc(NS(C)(=O)=O)n3)c(F)c2)c1` was > 1000 nM.
Turning to `CCC(C(=O)Nc1ccc(-c2cncc(OC(C)C)n2)cc1)c1ccnc(NS(=O)(=O)C2CC2)n1` (stereo not drawn), the IC50 is ≤ 100 nM.
The result for `CC(C)(C(=O)Nc1ccc(-c2cncc(C(F)(F)F)n2)cc1)c1ccnc(NS(C)(=O)=O)n1` reads > 100 nM; that for `O=C(Cc1ccnc(NS(=O)(=O)C2CC2)n1)Nc1ccc(-c2cncc(OCC(F)(F)F)c2)cc1`, > 100 nM; that for `CCOc1cncc(-c2ccc(NC(=O)C(C)(C)c3ccnc(NS(=O)(=O)C4CC4)n3)nc2)n1`, ≤ 100 nM.
The result for `O=C(Cc1ccnc(NS(=O)(=O)C2CC2)n1)Nc1ccc(-c2cncc(C(F)(F)F)c2)cc1` reads > 100 nM; that for `CCOc1cncc(-c2ccc(NC(=O)C(C)(C)c3ccnc(NS(=O)(=O)C(C)(C)C)n3)cc2)n1`, > 1000 nM.
For the compound `CCOc1cncc(-c2ccc(NC(=O)C(C)(C)c3ccnc(NS(=O)(=O)C4CCC4)n3)cc2)n1`, the IC50 is > 100 nM.
In the case of `O=C(Cc1ccnc(NS(=O)(=O)C2CC2)n1)Nc1ccc(-c2ccccc2)cc1`, the IC50 is > 1000 nM.
`CCC(C(=O)Nc1ccc(-c2cncc(OCC(F)(F)F)c2)cc1F)c1ccnc(NS(=O)(=O)C2CC2)n1` (stereo not drawn): the IC50 is > 100 nM.
The value for `CCOc1cncc(-c2ccc(NC(=O)Cc3ccnc(NS(=O)(=O)C4CC4)n3)cc2)n1` was ≤ 100 nM; that for `CCOc1cncc(-c2ccc(NC(=O)C(CC)(CC)c3ccnc(NS(=O)(=O)C4CC4)n3)cc2)n1` was ≤ 100 nM.
The result for `CCOc1cncc(-c2ccc(NC(=O)C3(c4ccnc(NS(=O)(=O)C5CC5)n4)CCCC3)cc2)n1` reads ≤ 100 nM; that for `CCC(C(=O)Nc1ccc(-c2cncc(OC)n2)cc1F)c1ccnc(NS(=O)(=O)C2CC2)n1` (stereo not drawn), ≤ 100 nM; that for `O=C(Cc1ccnc(NS(=O)(=O)C2CC2)n1)Nc1ccc(-c2cncc(C(F)(F)F)n2)cc1`, ≤ 100 nM.
The result for `CCOc1cncc(-c2ccc(NC(=O)C(C)(C)c3ccnc(NS(=O)(=O)C4CC4)n3)c(OC(F)(F)F)c2)n1` reads ≤ 100 nM; that for `CCOc1cncc(-c2ccc(NC(=O)C(CC)c3ccnc(NS(=O)(=O)C4CC4)n3)c(F)c2)n1` (stereo not drawn), ≤ 100 nM; that for `CCOc1cncc(-c2ccc(NC(=O)C(CCOC)c3ccnc(NS(=O)(=O)C4CC4)n3)cc2)n1` (stereo not drawn), ≤ 100 nM.
`CC(C)(C(=O)Nc1ccc(-c2cccc(C(F)(F)F)c2)cc1)c1ccnc(NS(=O)(=O)C2CC2)n1`: the IC50 was > 1000 nM.
Take `CC(C)Oc1cncc(-c2ccc(NC(=O)C(C)(C)c3ccnc(NS(=O)(=O)C4CC4)n3)cc2)n1`: the IC50 is ≤ 100 nM.
The result for `O=C(Cc1ccnc(NS(=O)(=O)C2CC2)n1)Nc1ccc(-c2cncc(OCC(F)(F)F)n2)cc1` reads ≤ 100 nM; that for `CC(C)(C(=O)Nc1ccc(-c2cccnc2)cc1)c1ccnc(NS(=O)(=O)C2CC2)n1`, > 1000 nM.
The result for `CCOc1cncc(-c2cc(OC)c(NC(=O)C(C)(C)c3ccnc(NS(=O)(=O)C4CC4)n3)cc2F)n1` reads > 100 nM.
The result for `CCOc1cncc(-c2cc(F)c(NC(=O)C(C)(C)c3ccnc(NS(=O)(=O)C4CC4)n3)cc2C)n1` reads > 100 nM.
Regarding `CC(C)Oc1cncc(-c2ccc(NC(=O)C(C)(C)c3ccnc(NS(=O)(=O)C4CC4)n3)cc2)c1`, the concentration for half-maximal inhibition (IC50) was > 100 nM.

Source of the values: ChEMBL document CHEMBL5052818, “Aminopyrimidine derivatives as ctps1 inhibitors” (2019).
